Key:
[1] = test system: gastric mucous; assay: Gastric mucous damage test in rats; format: in vivo, rat (male rats of Wistar strain); conditions: oral, rats fasted 18 hours
Procedure: Gastric mucous damage test in rats
Using male rats of Wistar strain each weighing approximately 160 g, compounds of the present invention were orally administered to the rats previously fasting for 18 hours. Three point five hours later, 1 ml/rat of a 5% Pontamin Sky Blue solution was intravenously injected to the rats. Rats were dissected to remove the stomachs therefrom. A 10 ml of 70% ethanol was injected into the stomachs to fix them, and the stomachs were cut and washed with a 10% hydrogen peroxide/ethanol mixed liquid and then visually observed to fine whether ulcers were formed therein.

[2] = test system: writhing induced by acetic acid; assay: Inhibitory actions on the writhing induced by acetic acid in mice; format: in vivo, mouse (male ddY strain mice); conditions: 50 mg/kg, oral, 30 min before 0.6% acetic acid; writhing counted for 10 min, 5 min after acetic acid; vs control group
Procedure: Inhibitory actions on the writhing induced by acetic acid in mice
Male ddY strain mice weighing 20-24 g were used a group consisting 7-9 animals. Each compound was orally administered to mice. Thirty minutes later, 0.6% acetic acid was abdominally administered at a dose of 0.1 ml/10 g. The number of writhing was counted 5 minutes after the administration of the acetic acid for 10 minutes. The inhibitory percentage were determined by comparing the number of writhing to the control group.

[3] = test system: carrageenin-induced paw edema; assay: Inhibitory actions on carrageenin-induced paw edema; format: in vivo, rat (male rats of Wistar strain); conditions: 50 mg/kg, oral, 60 min before 1% λ-carrageenin; 3 hours after induction; vs control group
Procedure: Inhibitory actions on carrageenin-induced paw edema
Using male rats of Wistar strain each weighing approximately 150 g, 0.1 ml of 1% λ-carrageenin was subcutaneously injected into the paw of each rat to induce the reaction. Since then, the volume of paw edema was measured in time course. Each compound of the present invention was orally administered to the rats 60 minutes before the induction of the reaction. As shown in the following Table, the results were expressed in terms of inhibitory percentage in comparison with those in control group at 3 hours after the induction of the reaction.

[4] = Acute toxicity test in mice; conditions: in vivo; male mouse, oral, 14 days observation
Source text: (§1) Acute toxicity test in rats and mice
(§2) Each group consisting 8 animals such as male Wistar rats weighing about 120 g and male ddY mice weighing about 25 g was used. Compounds of the present invention were orally administered to the animals. General symptoms, changes in body weight and lethality of the test animals had been observed over a period of time for 14 days after the oral administration.

[5] = Acute toxicity test in rats; conditions: in vivo; male rat, oral, 14 days observation
Source text: as §1, §2

SMILES | Ulcer formation ([1]; 100 mg/kg) | Inhibition (inhibitory percentage of writhing) [2] [%] | Inhibition (inhibitory percentage of paw edema) [3] [%] | LD50 at 336 h [4] [mg/kg] | LD50 at 336 h [5] [mg/kg] | Ulcer formation ([1]; 10 mg/kg)
O=C(c1ccccc1Cl)c1nc(Br)c2n1CCC2C(=O)O (stereo not drawn) [Compound of Example 9] | 0/6 | 83.3 | 50.1 | > 3000 | > 5000 | 
COc1ccc2c(c1)c(CC(=O)O)c(C)n2C(=O)c1ccc(Cl)cc1 [Indomethacine, reference compound] |  |  |  |  |  | 6/6
CC(C)c1ccc(C(=O)c2ncc3n2CCC3C(=O)O)cc1 (stereo not drawn) [Compound of Example 24] | 0/6 | 79.3 | 51.6 | > 3000 | > 5000 | 
O=C(c1ccccc1)c1nc(Br)c2n1CCC2C(=O)O (stereo not drawn) [Compound of Example 5, 3-benzoyl-1-bromo-6,7-dihydro-5H-pyrrolo[1,2-c]imidazole-7-carboxylic acid] | 0/6 | 87.5 | 48.4 | > 3000 | > 5000 | 
COc1ccc(C(=O)c2ncc3n2CCC3C(=O)O)cc1 (stereo not drawn) [Compound of Example 15] | 0/6 | 86.3 | 53.9 | > 3000 | > 5000 | 
O=C(c1ccc(Cl)cc1)c1nc(Br)c2n1CCC2C(=O)O (stereo not drawn) [Compound of Example 16] | 0/6 | 84.5 | 50.7 | > 3000 | > 5000 | 
CC(=O)Oc1ccccc1C(=O)O [Aspirin, reference compound] | 6/6 |  |  |  |  | 
